In ChEMBL document CHEMBL1155200, “Structure-activity relationships of the 1-amino-3-(1H-indol-1-yl)-3-phenylpropan-2-ol series of monoamine reuptake inhibitors” (Bioorg Med Chem Lett, 2009):

Key:
Homo sapiens = species: Homo sapiens; experiment: Selectivity ratio, IC50 for human SERT to IC50 for human NET
[1] = biological target: Sodium-dependent noradrenaline transporter (Homo sapiens, UniProt P23975)
Description: Inhibition of human NET expressed in MDCK-Net6 cells

[2] = biological target: Sodium-dependent dopamine transporter (Homo sapiens) (UniProt Q01959); experiment: Displacement of [3H]WIN-35428 from human DAT expressed in CHO cells; format: cell-based; conditions: concentration not given here
[3] = biological target: Sodium-dependent serotonin transporter (Homo sapiens, UniProt P31645); format: cell-based, JAR
Description: Inhibition of human SERT expressed in JAR cells

Rattus norvegicus [4] = experiment: Effect on temperature homeostasis in ovariectomized-induced thermoregulatory dysfunction telemetric Sprague-Dawley rat model assessed as maximum reduction in tail skin temperature at 10 mg/kg, po; format: functional
Rattus norvegicus [5] = experiment: Effect on temperature homeostasis in ovariectomized-induced thermoregulatory dysfunction telemetric Sprague-Dawley rat model assessed as maximum reduction in tail skin temperature at 30 mg/kg, po; format: functional
[6] = Ratio of AUC in brain to AUC in plasma in rat at 10 mg/kg, po and 2 mg/kg, iv; format: ADME, organism-based; conditions: read-out: Ratio AUC
Rattus norvegicus [7] = experiment: Effect on temperature homeostasis in ovariectomized-induced thermoregulatory dysfunction in telemetric Sprague-Dawley rat model assessed as duration of tail skin temperature reduction at 10 mg/kg, po; format: functional
Rattus norvegicus [8] = experiment: Effect on temperature homeostasis in ovariectomized-induced thermoregulatory dysfunction telemetric Sprague-Dawley rat model assessed as duration of tail skin temperature reduction at 30 mg/kg, po; format: functional
[9] = Cmax in rat at 10 mg/kg, po after 8 hrs; format: ADME, organism-based; design: dose 10 mg/kg, route oral; conditions: in vivo
[10] = Oral bioavailability in rat at 10 mg/kg; format: ADME, organism-based; conditions: in vivo
Rattus norvegicus [11] = experiment: Effect on temperature homeostasis in ovariectomized-induced thermoregulatory dysfunction in telemetric Sprague-Dawley rat model assessed as duration of onset activity in tail skin temperature reduction at 10 mg/kg, po; format: functional
Rattus norvegicus [12] = experiment: Effect on temperature homeostasis in ovariectomized-induced thermoregulatory dysfunction telemetric Sprague-Dawley rat model assessed as mean reduction in tail skin temperature at 10 mg/kg, po; format: functional
Rattus norvegicus [13] = experiment: Effect on temperature homeostasis in ovariectomized-induced thermoregulatory dysfunction in telemetric Sprague-Dawley rat model assessed as duration of onset activity in tail skin temperature reduction at 30 mg/kg, po; format: functional
[14] = Plasma concentration in rat at 10 mg/kg, po after 8 hrs; format: ADME, organism-based; design: dose 10 mg/kg, route oral
Rattus norvegicus [15] = experiment: Effect on temperature homeostasis in ovariectomized-induced thermoregulatory dysfunction telemetric Sprague-Dawley rat model assessed as mean reduction in tail skin temperature at 30 mg/kg, po; format: functional

Sequence of Sodium-dependent serotonin transporter (P31645 whole entry): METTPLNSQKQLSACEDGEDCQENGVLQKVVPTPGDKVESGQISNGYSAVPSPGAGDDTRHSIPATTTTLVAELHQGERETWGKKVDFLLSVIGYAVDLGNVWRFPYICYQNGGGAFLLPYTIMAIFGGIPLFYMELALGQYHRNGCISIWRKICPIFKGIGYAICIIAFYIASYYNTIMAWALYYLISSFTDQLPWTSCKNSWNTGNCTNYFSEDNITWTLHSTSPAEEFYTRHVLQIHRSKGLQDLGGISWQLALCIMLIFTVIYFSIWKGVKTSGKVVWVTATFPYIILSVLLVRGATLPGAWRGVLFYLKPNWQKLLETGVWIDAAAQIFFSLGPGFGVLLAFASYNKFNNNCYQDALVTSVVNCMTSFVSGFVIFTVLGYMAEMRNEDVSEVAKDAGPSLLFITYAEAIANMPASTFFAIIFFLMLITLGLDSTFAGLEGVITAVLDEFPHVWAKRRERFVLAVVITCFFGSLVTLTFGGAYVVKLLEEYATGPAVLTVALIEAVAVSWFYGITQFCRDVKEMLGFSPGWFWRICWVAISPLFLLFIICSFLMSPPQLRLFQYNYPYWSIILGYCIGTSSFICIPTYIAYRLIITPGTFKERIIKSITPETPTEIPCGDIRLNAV
Sequence of Sodium-dependent dopamine transporter (Homo sapiens) (Q01959 whole entry): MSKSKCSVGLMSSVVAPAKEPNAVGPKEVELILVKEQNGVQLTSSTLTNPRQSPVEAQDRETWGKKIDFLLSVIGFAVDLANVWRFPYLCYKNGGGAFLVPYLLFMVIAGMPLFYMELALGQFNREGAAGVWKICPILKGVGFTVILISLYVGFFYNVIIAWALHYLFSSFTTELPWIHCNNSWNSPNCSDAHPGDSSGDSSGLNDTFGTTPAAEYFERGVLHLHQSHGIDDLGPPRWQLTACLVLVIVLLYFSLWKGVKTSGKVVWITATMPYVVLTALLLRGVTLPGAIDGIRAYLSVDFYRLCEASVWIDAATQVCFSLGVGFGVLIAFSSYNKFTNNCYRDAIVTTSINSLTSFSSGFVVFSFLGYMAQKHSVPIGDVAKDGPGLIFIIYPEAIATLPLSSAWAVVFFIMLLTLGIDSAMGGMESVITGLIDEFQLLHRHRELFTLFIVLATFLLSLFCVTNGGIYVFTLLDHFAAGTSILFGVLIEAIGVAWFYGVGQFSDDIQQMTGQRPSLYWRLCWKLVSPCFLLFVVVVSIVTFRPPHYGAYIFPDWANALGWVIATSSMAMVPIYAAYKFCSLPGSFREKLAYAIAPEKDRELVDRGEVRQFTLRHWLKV
Sequence of Sodium-dependent noradrenaline transporter (P23975 whole entry): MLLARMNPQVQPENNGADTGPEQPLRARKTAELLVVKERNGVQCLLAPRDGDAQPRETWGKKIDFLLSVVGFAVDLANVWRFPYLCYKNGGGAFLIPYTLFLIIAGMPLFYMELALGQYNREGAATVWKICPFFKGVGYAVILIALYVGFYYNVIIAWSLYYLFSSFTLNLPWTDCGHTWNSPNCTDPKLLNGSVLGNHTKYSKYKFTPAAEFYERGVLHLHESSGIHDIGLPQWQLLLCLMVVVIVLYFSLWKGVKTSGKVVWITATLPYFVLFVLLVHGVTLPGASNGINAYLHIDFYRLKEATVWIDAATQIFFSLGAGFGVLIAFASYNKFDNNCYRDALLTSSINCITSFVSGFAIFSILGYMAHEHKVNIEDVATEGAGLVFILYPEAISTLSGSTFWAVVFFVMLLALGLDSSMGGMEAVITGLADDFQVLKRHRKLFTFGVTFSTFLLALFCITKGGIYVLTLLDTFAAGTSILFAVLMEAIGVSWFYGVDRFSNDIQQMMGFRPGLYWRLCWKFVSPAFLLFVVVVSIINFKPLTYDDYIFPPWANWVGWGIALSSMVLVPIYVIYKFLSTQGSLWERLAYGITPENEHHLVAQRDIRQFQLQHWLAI

| Ratio IC50 (Homo sapiens) | IC50 [1] [nM] | inhibition [2] [%] | IC50 [3] [nM] | SMILES | other results |
| --- | --- | --- | --- | --- | --- |
| 2 | 21 | 0 | 48 | CNC[C@@H](O)[C@H](c1cccc(F)c1)n1ccc2cc(C)ccc21 |  |
| 25 | 7 | 8 | 175 | CNC[C@@H](O)[C@H](c1cccc(F)c1)n1ccc2cccc(F)c21 |  |
| 29 | 18 | 7 | 527 | CNC[C@@H](O)[C@H](c1cccc(F)c1)n1ccc2cccc(C)c21 |  |
| 31 | 20 | 15 | 626 | CNC[C@@H](O)[C@H](c1cccc(F)c1)n1ccc2ccc(F)cc21 |  |
| 8 | 124 | 12 | 1000 | CNC[C@@H](O)[C@H](c1cccc(F)c1)n1ccc2ccc(Br)cc21 |  |
| 1 | 60 | 10 | 52 | CNC[C@@H](O)[C@H](c1cccc(F)c1)n1ccc2cc(Br)ccc21 |  |
| 2 | 21 | 0 | 48 | CNC[C@@H](O)[C@H](c1cccc(F)c1)n1ccc2cccc(Cl)c21 |  |
| 83 | 10 | 0 | 834 | CCc1cn([C@@H](c2cccc(F)c2)[C@H](O)CNC)c2ccccc12 |  |
| 1 | 60 | 6 | 79 | CNC[C@@H](O)[C@H](c1cccc(F)c1)n1ccc2cc(Cl)ccc21 |  |
| 8 | 111 | 0 | 882 | CNC[C@@H](O)[C@H](c1cccc(OC)c1)n1ccc2ccccc21 |  |
| 5 | 92 | 4 | 473 | CNC[C@@H](O)[C@H](c1ccccc1F)n1ccc2ccccc21 |  |
| 3 | 117 | 0 | 398 | CNC[C@@H](O)[C@H](c1ccc(C)cc1)n1ccc2ccccc21 |  |
| 26 | 16 | 3 | 417 | CNC[C@@H](O)[C@H](c1cccc(F)c1)n1ccc2c(F)cccc21 |  |
| 86 | 4 | 8 | 343 | CNC[C@@H](O)[C@H](c1cccc(F)c1)n1cc(C)c2ccccc21 | Activity (Rattus norvegicus [4]): -2.3 °C; Activity (Rattus norvegicus [5]): -7 °C; Kp [6]: 3.5; Time (Rattus norvegicus [7]): 5 h; Activity (Rattus norvegicus [8]): 10.5 h; Cmax [9]: 87 ng/mL; bioavailability [10]: 6%; Activity (Rattus norvegicus [11]): 1 h; Activity (Rattus norvegicus [12]): -1.5 °C; Activity (Rattus norvegicus [13]): 0.5 h; concentration at 8 h [14]: 40 nM; Activity (Rattus norvegicus [15]): -3.8 °C |
| 1 | 232 | 11 | 266 | CNC[C@@H](O)[C@H](c1ccccc1C)n1ccc2ccccc21 |  |
| 15 | 15 | 4 | 228 | CNC[C@@H](O)[C@H](c1cccc(F)c1)n1ccc2c(C)cccc21 |  |

| Ratio IC50 (Homo sapiens) | IC50 [1] [nM] | inhibition [2] [%] | IC50 [3] [nM] | SMILES | other results |
| --- | --- | --- | --- | --- | --- |
| 5 | 21 | 0 | 113 | CNC[C@@H](O)[C@H](c1cccc(F)c1)n1ccc2cccc(Br)c21 |  |
| 1 | 527 | 16 | 748 | CNC[C@@H](O)[C@H](c1ccc(Cl)cc1)n1ccc2ccccc21 |  |
| 40 | 11 | 23 | 441 | CNC[C@@H](O)[C@H](c1cccc(F)c1)n1ccc2ccccc21 |  |
| 39 | 14 | 13 | 547 | CNC[C@@H](O)[C@H](c1cccc(Br)c1)n1ccc2ccccc21 |  |
| 3 | 64 | 12 | 221 | CNC[C@@H](O)[C@H](c1cccc(F)c1)n1ccc2c(Cl)cccc21 |  |
| 0.2 | 91 | 52 | 14 | CNCC[C@H](c1cccc(F)c1)n1ccc2ccccc21 |  |
| 34 | 16 | 20 | 554 | CNC[C@@H](O)[C@H](c1cccc(Cl)c1)n1ccc2ccccc21 |  |
| 8 | 49 | 8 | 377 | CNC[C@@H](O)[C@H](c1cccc(C)c1)n1ccc2ccccc21 |  |
| 4 | 304 | 7 | 1330 | CNC[C@@H](O)[C@H](c1ccccc1Cl)n1ccc2ccccc21 |  |
| 16 | 84 | 11 | 1370 | CNC[C@@H](O)[C@H](c1ccc(F)cc1)n1ccc2ccccc21 |  |
| 9 | 92 | 9 | 865 | CNC[C@@H](O)[C@H](c1cccc(F)c1)n1ccc2ccc(Cl)cc21 |  |
| 4 | 22 | 9 | 78 | CNC[C@@H](O)[C@H](c1cccc(F)c1)n1ccc2cc(F)ccc21 |  |
| 40 | 54 | 14 | 2180 | CNC[C@@H](O)[C@H](c1cccc(C(F)(F)F)c1)n1ccc2ccccc21 |  |
| 4 | 52 | 24 | 207 | CNC[C@@H](O)[C@H](c1cccc(F)c1)n1ccc2c(Br)cccc21 |  |
| 14 | 34 | 44 | 491 | CNCC[C@H](c1ccccc1)n1ccc2ccccc21 |  |
